Test results reported in ChEMBL document CHEMBL3352749, “An iridoid glucoside and the related aglycones from Cornus florida” (J Nat Prod, 2014).
Calls of active or inactive are those of the source.

Experiments:
BG02 = assay: Growth inhibition of human BG02 cells up to 100 uM; assay type: functional, cell-based
MCF7 = assay: Growth inhibition of human MCF7 cells up to 100 uM; assay type: functional, cell-based
MDA-MB-231 = assay: Growth inhibition of human MDA-MB-231 cells up to 100 uM; assay type: functional, cell-based
[1] = target: T1, Peroxisome proliferator-activated receptor gamma (Homo sapiens) (UniProt P37231); assay: Agonist activity at PPARgamma (unknown origin)
T1 sequence (whole entry): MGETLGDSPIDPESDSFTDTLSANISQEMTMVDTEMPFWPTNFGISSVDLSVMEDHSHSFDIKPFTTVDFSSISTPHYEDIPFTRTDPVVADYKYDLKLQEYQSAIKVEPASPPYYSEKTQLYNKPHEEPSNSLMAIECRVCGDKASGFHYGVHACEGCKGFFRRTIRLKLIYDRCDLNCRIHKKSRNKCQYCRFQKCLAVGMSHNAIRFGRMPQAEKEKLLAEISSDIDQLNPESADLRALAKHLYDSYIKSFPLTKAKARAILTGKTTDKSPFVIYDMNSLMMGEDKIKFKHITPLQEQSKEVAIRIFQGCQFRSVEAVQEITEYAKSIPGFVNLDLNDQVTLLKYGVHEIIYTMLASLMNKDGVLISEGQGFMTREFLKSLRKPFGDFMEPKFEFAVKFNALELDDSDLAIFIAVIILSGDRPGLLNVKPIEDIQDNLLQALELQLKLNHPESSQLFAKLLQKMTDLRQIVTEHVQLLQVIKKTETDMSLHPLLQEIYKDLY

Measured: Activity

C[C@H]1C[C@@H]2OC(=O)[C@@H]3C(=O)OC[C@H]1[C@@H]32
inactive: BG02 | MCF7 | MDA-MB-231 | [1]

C[C@H]1C[C@@H](O)[C@@H]2CC(=O)OC[C@@H]21
inactive: BG02 | MCF7 | [1]

COC(=O)[C@@H]1C(=O)OC[C@H]2[C@@H]1[C@H](O)C[C@@H]2C
inactive: BG02 | MCF7 | MDA-MB-231 | [1]

C[C@H]1C[C@@H]2OC(=O)C[C@@H]2[C@@H]1CO
inactive: BG02 | MCF7 | MDA-MB-231 | [1]

COC(=O)[C@H]1C(=O)O[C@H]2C[C@H](C)[C@@H](CO[C@@H]3O[C@H](CO)[C@@H](O)[C@H](O)[C@H]3O)[C@@H]12
inactive: BG02 | MCF7 | MDA-MB-231
